Entries after “also recorded” stand apart in the source; their conditions may differ.
Columns and labels:
RT112 = assay: Proliferation assay using bladder cancer cell lines, RT112; type: cell-based, human; conditions: 72 h culture, CyQuant proliferation assay
Experimental: (§1) Bladder cancer cell lines (T24, RT112, HT1376 and RT4 are human bladder cancer cell lines; NHEK are normal human keratinocytes) were obtained from the European Collection of Cell Cultures (Salisbury, UK). Cells were plated at 3×10^3 per well, in flat bottomed 96-well plates in 100 μl of DMEM medium containing: 5% Fetal Clone I, 50 μg/l gentamicin, 1 mM sodium pyruvate and 1% non-essential amino acids. After culturing for 24 h at 37° C. in 5% CO2, to allow cells to adhere to the plates, VDR ligands (compounds (2), (4), (5) and other vitamin D3 analogs as shown in Table 4) were added at concentrations ranging from 100 μM to 0.3 μM in 100 μl of above-mentioned complete medium. After a further 72 h of culture, cell proliferation was measured using a fluorescence-based proliferation assay kit. (CyQuant Cell Proliferation Assay Kit, Molecular Probes, Eugene, Oreg., USA). The IC50 was calculated from the regression curve of the titration data.

NHEK = assay: Proliferation assay, NHEK normal human keratinocytes; type: cell-based; conditions: 72 h culture, CyQuant proliferation assay
Experimental: as §1

HT 1376 = assay: Proliferation assay using bladder cancer cell lines, HT1376; type: cell-based, human; conditions: 72 h culture, CyQuant proliferation assay
Experimental: as §1

RT4 = assay: Proliferation assay using bladder cancer cell lines, RT4; type: cell-based, human; conditions: 72 h culture, CyQuant proliferation assay
Experimental: as §1

ECV = assay: Proliferation assay using bladder cancer cell lines, ECV; type: cell-based, human; conditions: 72 h culture, CyQuant proliferation assay
[1] = Determination of Maximum Tolerated Dose (MTD); conditions: for MTD at 4 days: female, C57BL/6, mouse, in vivo, po; for MTD compared with the corresponding dihydroxy (parent) compound: versus (1) or (3)
Experimental: The maximum tolerated dose of the vitamin D3 compounds of the invention were determined in eight week-old female C57BL/6 mice (3 mice/group) dosed orally (0.1 ml/mouse) with various concentrations of Vitamin D3 analogs daily for four days. Analogs were formulated in miglyol for a final concentration of 0.01, 0.03, 0.1 0.3, 1, 3, 10, 30, 100 and 300 μg/kg when given at 0.1 ml/mouse p.o. daily. Blood for serum calcium assay was drawn by tail bleed on day five, the final day of the study.

IFN-γ production = IFN-γ production in the mixed leukocyte response (MLR); type: cell-based; conditions: 120 h; allogeneic PBMC from 2 donors, 5 days, ELISA; read-out: INF-γ IC50
Experimental: Immature dendritic cells (DC) were prepared as described in Romani, N. et al. (Romani, N. et al. (1996) J. Immunol. Meth. 196:137). IFN-γ production by allogeneic T cell activation in the mixed leukocyte response (MLR) was determined as described in Penna, G., et al., J Immunol., 164: 2405-2411 (2000).
Briefly, peripheral blood mononuclear cells (PBMC) were separated from buffy coats by Ficoll gradient and the same number (3×10^5) of allogeneic PBMC from 2 different donors were co-cultured in 96-well flat-bottom plates. The vitamin D3 compounds were added to each of the cultures.

[2] = MTD in CD1 mouse (highest non-hypercalcemic dose); conditions: in vivo
Human BPH cells = assay: BPH cell proliferation assay (testosterone-induced); type: cell-based; conditions: 48 h
Experimental: Human BPH cells, prepared, maintained and used as previously described in Crescioli C, et al. Journal of Clinical and Endocrinology Metabolism (2000) 85 p 2576-2583, were obtained from prostate tissues derived from 5 patients, who underwent suprapubic adenomectomy for BPH, after informed consent and approval by the Local Ethical Committee.
For all cell proliferation assays, 4×10^4 BPH cells were seeded onto 12-well plates in their growth medium, starved in red- and serum-free medium containing 0.1% BSA for 24 h, and then treated with specific stimuli for 48 h. Cells in phenol red- and serum-free medium containing 0.1% BSA were used as controls. Thereafter, cells were trypsinized, and each experimental point was derived from hemocytometer counting, averaging at least six different fields for each well, as previously reported (see Crescioli C, et al. Journal of Clinical and Endocrinology Metabolism (2000) 85 p 2576-2583).
Growth assays were also carried out using a fixed concentration of androgens (10 nM) with or without vitamin-D analogs (1 nM, 10 nM) or the anti-androgens finasteride (F, 1 nM) and cyproterone acetate (Cyp, 100 nM. Growth assays were also performed using a fixed concentration of T (10 nM) or GFs (10 ng/ml) with or without the vitamin-D analogs. (10 nM).
In the same experiment, each experimental point was repeated in triplicate or quadruplicate and experiments were performed 3 times. Results are expressed as % variation (mean±SEM) over the maximal T or GF-induced stimulation.

| Structure (SMILES) | IC50 (RT112) [µM] | IC50 (NHEK) [µM] | IC50 (HT 1376) [µM] | IC50 (RT4) [µM] | IC50 (ECV) [µM] | MTD (mice) ([1]; female C57BL/6 mice, p.o. daily for four days, highest dose without hypercalcemia (serum calcium >10.7 mg/dl)) [µg/kg] | IC50 (IFN-γ production) [nM] | IC50 (RT112; Homo sapiens, RT-112, 72 h) [µM] | MTD at 4 days [1] [µg/kg] | MTD compared with the corresponding dihydroxy (parent) compound [1] | IC50 (NHEK; Homo sapiens, NHEK) [µM] | IC50 (HT 1376; Homo sapiens, HT-1376) [µM] | IC50 (RT4; Homo sapiens, RT-4, 72 h) [µM] | IC50 (ECV; Homo sapiens) [µM] | MTD [2] [µg/kg] | IC50 (Human BPH cells) [µM] |
| --- | --- | --- | --- | --- | --- | --- | --- | --- | --- | --- | --- | --- | --- | --- | --- | --- |
| CC(C/C=C\C(O)(C(F)(F)F)C(F)(F)F)C1=CCC2C(=CC=C3CC(O)CC(O)C3)CCCC12C (stereo not drawn) [(1), 1,25-dihydroxy-16,23Z-diene-26,27-hexafluoro-19-nor-cholecalciferol, reference compound] | 24 | 4.4 | 56 | 20 | 58.7 |  |  |  |  |  |  |  |  |  |  |  |
| CC(CC#CC(O)(C(F)(F)F)C(F)(F)F)C1=CCC2C(=CC=C3CC(O)CC(O)C3)CCCC12C (stereo not drawn) [(3), 1,25-dihydroxy-16-ene-23-yne-26,27-hexafluoro-19-nor-cholecalciferol, reference compound] |  |  |  |  |  | 0.3 |  |  |  |  |  |  |  |  |  |  |
| CC(=O)OC1C/C(=C/C=C2\CCC[C@]3(C)C(C(C)CC#CC(O)(C(F)(F)F)C(F)(F)F)=CCC23)C[C@@H](OC(C)=O)C1 (stereo partly drawn) [(4), 1,3-Di-O-acetyl-1,25-Dihydroxy-16-ene-23-yne-26,27-hexafluoro-19-nor-cholecalciferol] |  |  |  |  |  |  | 0.525 | 15 | 10 | significantly higher; also recorded: considerably greater | 0.8 | > 100 | 9 | 29 |  |  |
| CC(=O)OC1C/C(=C/C=C2\CCC[C@]3(C)C(C(C)CC#CC(OC(C)=O)(C(F)(F)F)C(F)(F)F)=CCC23)C[C@@H](OC(C)=O)C1 (stereo partly drawn) [(5), 1,3,25-Tri-O-acetyl-1,25-Dihydroxy-16-ene-23-yne-26,27-hexafluoro-19-nor-cholecalciferol] |  |  |  |  |  |  | 0.499 | 13 | 3 | significantly higher; also recorded: considerably greater | 25.6 | > 100 | 7 | 32 |  |  |
| C=C1/C(=C\C=C2/CCC[C@]3(C)C(C(C)C/C=C/C(C)(C)O)=CCC23)CC(OC(C)=O)C[C@@H]1OC(C)=O (stereo partly drawn) [(9), 1,3-Di-O-acetyl-1,25-dihydroxy-16,23E-diene-cholecalciferol] |  |  |  |  |  |  |  | 14 |  |  | 5.1 | > 100 | 82 | 58.7 | 3 | 0.00912 |
| C=C1/C(=C\C=C2/CCC[C@]3(C)C(C(C)CCCC(C)(C)O)=CCC23)CC(OC(C)=O)C[C@@H]1OC(C)=O (stereo partly drawn) [(11), 1,3-Di-O-acetyl-1,25-dihydroxy-16-ene-cholecalciferol] |  |  |  |  |  |  |  | 18 |  |  | 5 | > 100 | 75 | 59.9 | 1 | 0.000759 |
| C=C1/C(=C\C=C2/CCC[C@]3(C)C(C(C)CC#CC(OC(C)=O)(C(F)(F)F)C(F)(F)F)=CCC23)CC(OC(C)=O)C[C@@H]1OC(C)=O (stereo partly drawn) [(13), 1,3,25-Tri-O-acetyl-1,25-dihydroxy-16-ene-23-yne-26,27-hexafluoro-cholecalciferol] |  |  |  |  |  |  | 0.0401 | 17 | 3 |  | 19.5 |  | 95 | > 100 |  |  |
| C=C1/C(=C\C=C2/CCC[C@]3(C)C(C(C)C/C=C/[C@@](C)(O)C(F)(F)F)=CCC23)CC(OC(C)=O)C[C@@H]1OC(C)=O (stereo partly drawn) [(16), 1,3-Di-O-acetyl-1,25-dihydroxy-16,23E-diene-25R,26-trifluoro-cholecalciferol] |  |  |  |  |  |  |  | 2 |  |  | 3.1 | > 100 | 16 | 76.6 |  |  |
| CC(=O)OC1C/C(=C/C=C2\CCC[C@]3(C)C(C(C)CCCC(C)(C)O)=CCC23)C[C@@H](OC(C)=O)C1 (stereo partly drawn) [(18), 1,3-Di-O-acetyl-1,25-dihydroxy-16-ene-19-nor-cholecalciferol] |  |  |  |  |  |  |  | 1 |  |  | 5.8 | 96 | 8 | 27.9 | 3 | 2.24e-05 |
| CC(=O)OC1C/C(=C/C=C2\CCC[C@]3(C)C(C(C)CC#CC(C)(C)O)=CCC23)C[C@@H](OC(C)=O)C1 (stereo partly drawn) [(20), 1,3-Di-O-Acetyl-1,25-dihydroxy-16-ene-23-yne-19-nor-cholecalciferol] |  |  |  |  |  |  |  | 1 |  |  | 6.7 | > 100 | 9 | 26.7 | 30 |  |
| CCC(O)(C#CCC(C)C1=CCC2/C(=C/C=C3/CC(OC(C)=O)C[C@H](OC(C)=O)C3)CCC[C@]12C)CC (stereo partly drawn) [(22), 1,3-Di-O-acetyl-1,25-dihydroxy-16-ene-23-yne-26,27-bishomo-19-nor-cholecalciferol] |  |  |  |  |  |  | 0.0253 | 7 | 100 |  | 4.7 | > 100 | 9 | 81.7 |  |  |
| CC(=O)OC1C/C(=C/C=C2\CCC[C@@]3(C)C2CCC3C2(CC#CC(C)(C)O)CC2)C[C@@H](OC(C)=O)C1 (stereo partly drawn) [(24), 1,3-Di-O-acetyl-1,25-dihydroxy-20-cyclopropyl-23-yne-19-nor-cholecalciferol] |  |  |  |  |  |  |  | 18 |  |  | 6.8 | > 100 | 7 | 21.5 |  |  |
| CC(=O)OC1C/C(=C/C=C2\CCC[C@@]3(C)C2CCC3C2(C/C=C/C(O)(C(F)(F)F)C(F)(F)F)CC2)C[C@@H](OC(C)=O)C1 (stereo partly drawn) [(31), 1,3-Di-O-acetyl-1,25-dihydroxy-20-cyclopropyl-23E-ene-26,27-hexafluoro-19-nor-cholecalciferol] |  |  |  |  |  |  |  | 7 | 0.3 |  | 0.9 | 68 | 9 | 24.3 |  |  |
| CC(=O)OC1C/C(=C/C=C2\CCC[C@@]3(C)C2CCC3C2(C/C=C\C(O)(C(F)(F)F)C(F)(F)F)CC2)C[C@@H](OC(C)=O)C1 (stereo partly drawn) [(33), 1,3-Di-O-acetyl-1,25-dihydroxy-20-cyclopropyl-23Z-ene-26,27-hexafluoro-19-nor-cholecalciferol] |  |  |  |  |  |  |  | 16 |  |  | 0.9 | > 100 | 18 | > 100 |  |  |
| C=C1/C(=C\C=C2/CCC[C@@]3(C)C2CCC3C2(CCCC(C)(C)O)CC2)C[C@@H](OC(C)=O)C[C@@H]1OC(C)=O (stereo partly drawn) [(35), 1,3-Di-O-acetyl-1,25-dihydroxy-20-cyclopropyl-cholecalciferol] |  |  |  |  |  |  |  | 9 | 30 |  | 4.7 | 67 | 10 | 52.1 | 30 | 1260 |
| CC(=O)OC1C/C(=C/C=C2\CCC[C@]3(C)C(C4(CCCC(C)(C)O)CC4)=CCC23)C[C@@H](OC(C)=O)C1 (stereo partly drawn) [(37), 1,3-Di-O-acetyl-1α,25-dihydroxy-16-ene-20-cyclopropyl-19-nor-cholecalciferol] |  |  |  |  |  |  | 0.068 | 17.4 | 10 |  |  |  | 3 |  |  |  |
| C=C1/C(=C\C=C2/CCC[C@]3(C)C(C4(CCCC(C)(C)O)CC4)=CCC23)CC(OC(C)=O)C[C@@H]1OC(C)=O (stereo partly drawn) [(39), 1,3-Di-O-acetyl-1α,25-hydroxy-16-ene-20-cyclopropyl-cholecalciferol] |  |  |  |  |  |  | 0.045 | 21.5 | 3 |  |  |  | 2.8 |  |  |  |
